Among the data in ChEMBL document CHEMBL3507680, “University of Dundee, Gates Library screen for HepG2 cell viability” are cytotoxicity values, retold here.

This data set can be described thus: Human HepG2 cell viability assay in 384 well format. Particulars: HepG2 cells, read-out: Inhibition. The class given is toxicity, cell-based. The arrangement: dose 125 nL, time 70.5 hour; cytotoxicity at 70.5 h: concentration not given beside the values.

With `Cc1ccc(-c2cnc(CCC(=O)NCCN3CCOCC3)o2)cc1C`, the cytotoxicity at 70.5 h came out at 2.52%.

As for `O=C(C1CC(=O)N(c2ccccc2Br)C1)N1CCCCCC1` (configuration not stated), the cytotoxicity at 70.5 h worked out at 11.2%.

`CC(C)(C)OC(=O)NC(C)(C)c1noc(CSc2nncs2)n1`: the cytotoxicity at 70.5 h stood at 25.7%.

With `CCS(=O)(=O)c1ccc(N2CCC(NC(=O)CC3CCCC3)CC2)cc1`, the cytotoxicity at 70.5 h was -9.91%.

With `Cn1c(C(=O)N2CCC(C3OCCO3)CC2)c(Cl)c2ccccc21`, the cytotoxicity at 70.5 h was -9.46%.

As to `COc1cc(CNC(=O)C(C)SC)cc(Br)c1OC` (configuration not stated), the cytotoxicity at 70.5 h is -8.14%.

As for `COc1ccc(NC(=O)Cc2c(C)nc3c(c2C)c(=O)[nH]n3C)cn1`, the cytotoxicity at 70.5 h was -4.63%.

Consider `CCC(C)C(=O)NCc1cc(Br)c(OC)c(OC)c1` (configuration not stated), for which the cytotoxicity at 70.5 h was -6.76%.

For the molecule `COc1ncccc1NC(=O)N1CCC(C(=O)NC(C)C)CC1`, the cytotoxicity at 70.5 h is -5.13%.

For the molecule `COc1ncccc1NC(=O)NCC1CC1`, the cytotoxicity at 70.5 h is -3.58%.

`CCN(CC)C(=O)C1CCN(C(=O)Nc2cccnc2OC)CC1`: the cytotoxicity at 70.5 h amounted to 34.4%.

In the case of `Cc1nc2c(c(C)c1CC(=O)Nc1ccnn1C(C)C)c(=O)[nH]n2C`, the cytotoxicity at 70.5 h turned out to be 2.43%.

Take `CCOC(=O)COc1cccc(NC(=O)C2COCCO2)c1` (configuration not stated): the cytotoxicity at 70.5 h was -3.53%.

With `COc1cccc(NC(=O)Cc2c(C)nc3c(c2C)c(=O)[nH]n3C)c1`, the cytotoxicity at 70.5 h is -6.7%.

`Cc1cc(C)n(CC2CCCCN2CC(=O)Nc2nnc(C)s2)n1` (configuration not stated): the cytotoxicity at 70.5 h is -2.39%.

For the molecule `CCS(=O)(=O)c1ccc(N2CCC(N)CC2)cc1`, the cytotoxicity at 70.5 h was -1.97%.

On to `CCS(=O)(=O)c1ccc(N2CCC(NC(=O)NC(C)CO)CC2)cc1` (configuration not stated), for which the cytotoxicity at 70.5 h was -1.95%.

Take `CC(=O)NCCNC(=O)NCCCc1cccc(F)c1`: the cytotoxicity at 70.5 h is -5.39%.

On to `O=S(=O)(Cc1cccc(F)c1)NCC(O)Cc1ccccc1` (configuration not stated), for which the cytotoxicity at 70.5 h was -10.7%.

As to `COCCCS(=O)(=O)N1CCN(c2cccc(O)c2)CC1`, the cytotoxicity at 70.5 h is -6.99%.

As to `CCc1nc(NS(=O)(=O)c2cc(C)c(F)cc2Cl)no1`, the cytotoxicity at 70.5 h turned out to be 25.9%.

Take `CCc1nc(NS(=O)(=O)c2ccc(F)cc2Cl)no1`: the cytotoxicity at 70.5 h is -8.4%.

As for `COc1ncccc1NC(=O)N1CCCC(CNC(=O)OC(C)(C)C)C1` (configuration not stated), the cytotoxicity at 70.5 h is -6.55%.

`c1nc(N2CCCC2Cn2cncn2)c2ccsc2n1` (configuration not stated): the cytotoxicity at 70.5 h turned out to be 30.4%.

`COCCN1CCN(CCS(=O)(=O)c2cccc(OC)c2)CC1`: the cytotoxicity at 70.5 h is -2.71%.

For the molecule `CCCC1CCCN(C(=O)Nc2cccnc2OC)CC1` (configuration not stated), the cytotoxicity at 70.5 h was 19.4%.

With `Cc1cc(NC(=O)NC2CCCc3c2cnn3CCO)n(C)n1` (configuration not stated), the cytotoxicity at 70.5 h was -1.75%.

On to `Cc1nnc(NC(=O)NC2CCCc3c2cnn3CCO)s1` (configuration not stated), for which the cytotoxicity at 70.5 h is -6.14%.

As to `N#Cc1ccc(OCC(O)CN2CCN(c3nccs3)CC2)cc1` (configuration not stated), the cytotoxicity at 70.5 h came out at 13.7%.

For the molecule `Cc1ccc(C)c(S(=O)(=O)NCCC(=O)NCc2ccoc2)c1`, the cytotoxicity at 70.5 h was -11.7%.

On to `O=C(CCNS(=O)(=O)c1ccc(F)cc1)NCc1ccoc1`, for which the cytotoxicity at 70.5 h is -9.41%.

For the molecule `Cc1cc(C)c(S(=O)(=O)NCCC(=O)NCc2ccoc2)c(C)c1`, the cytotoxicity at 70.5 h was 3.02%.

Consider `O=C(CCNS(=O)(=O)c1ccc(Cl)cc1)NCc1ccoc1`, for which the cytotoxicity at 70.5 h is -5.84%.

Take `Cc1ccc(CNC(=O)NC2CCCc3c2cnn3CCO)cn1` (configuration not stated): the cytotoxicity at 70.5 h is -11.1%.

Regarding `CC(C)CCC(=O)Nc1ccc2oc(=O)n(CCN(C)C)c2c1`, the cytotoxicity at 70.5 h is -1.73%.

For `CN(Cc1ccncc1)C(=O)CCNS(=O)(=O)c1cccnc1`, the cytotoxicity at 70.5 h came to 2.92%.

As to `CC(C)NC(=O)CCNC(=O)c1cnc(Cc2ccc(F)cc2)s1`, the cytotoxicity at 70.5 h is -4.85%.

For `COC(=O)CCNC(=O)c1cnc(Cc2ccc(F)cc2)s1`, the cytotoxicity at 70.5 h was -2.52%.

As for `Cc1ccc(C(=O)N(CCC#N)Cc2ccccn2)cc1C`, the cytotoxicity at 70.5 h is 8.47%.

Regarding `Cc1cccc(OCC(O)CN2CCN(c3nccs3)CC2)c1` (configuration not stated), the cytotoxicity at 70.5 h was -3.61%.

For `COCc1ccc(C(=O)N(CCC#N)Cc2ccccn2)cc1`, the cytotoxicity at 70.5 h was -3.02%.

For `Cc1nc(COc2ccc(CNCCn3cccn3)cc2)cs1`, the cytotoxicity at 70.5 h was determined as 4.56%.

In the case of `CC(O)CN1CCN(C(=O)c2cnn(-c3ccccc3Cl)c2)CC1` (configuration not stated), the cytotoxicity at 70.5 h is -2.98%.

For `Cc1cnn(CCNCc2ccc(OCc3cscn3)cc2)c1`, the cytotoxicity at 70.5 h was -6.84%.

Turning to `CN(C)CCCNC(=O)c1cnc(Cc2ccc(F)cc2)s1`, the cytotoxicity at 70.5 h is -6.21%.

For `COc1c(C)cnc(CSc2nnc(N3CCCC3)s2)c1C`, the cytotoxicity at 70.5 h was determined as 8.14%.

As for `O=C(O)c1ccc(S(=O)(=O)Nc2c(F)cccc2-n2cccn2)cc1`, the cytotoxicity at 70.5 h was -1.35%.

For the molecule `CCN(CC1CN(Cc2cccc(C#N)c2)CCO1)c1cccnn1` (configuration not stated), the cytotoxicity at 70.5 h is 0.605%.

For `CC(C)OCCC(=O)NCCc1csc(N2CCCC2)n1`, the cytotoxicity at 70.5 h came to 5.53%.

Take `COc1c(C)cnc(CSc2nnc(N)s2)c1C`: the cytotoxicity at 70.5 h was -3.12%.

For `Cc1cnn(CCNCc2ccc(OCc3ccccn3)cc2)c1`, the cytotoxicity at 70.5 h was found to be 2.45%.

As for `COc1cc(C(=O)N(CCC#N)Cc2ccccn2)ccc1C`, the cytotoxicity at 70.5 h stood at 2.05%.

Regarding `Cc1ccc(C2COCCN2C(=O)c2ccc(C#N)cc2)o1` (configuration not stated), the cytotoxicity at 70.5 h is -7.82%.

In the case of `COCc1ccc(C(=O)N2CCOCC2c2ccc(C)o2)cc1` (configuration not stated), the cytotoxicity at 70.5 h is -0.476%.

Turning to `Cc1cnn(CCNCc2ccc(OCc3noc(C)n3)cc2)c1`, the cytotoxicity at 70.5 h is -6.14%.

As for `O=C(CCNS(=O)(=O)c1ccccc1F)NCc1ccoc1`, the cytotoxicity at 70.5 h stood at 4.05%.

For the molecule `CC(C)(O)CSCCNCc1ccc(Cl)c2cccnc12`, the cytotoxicity at 70.5 h came to 12.8%.

Turning to `COCCCNC1CCCN(c2ccc(C)nn2)C1` (configuration not stated), the cytotoxicity at 70.5 h is -9.97%.

As for `Cc1cccc(S(=O)(=O)N2CSCC2C(=O)NC(C)(C)C)c1` (configuration not stated), the cytotoxicity at 70.5 h was -3.48%.

Take `CC(C)(C)NC(=O)C1CSCN1S(=O)(=O)c1ccccc1S(C)(=O)=O` (configuration not stated): the cytotoxicity at 70.5 h is -1.89%.

`CC(C)(C)NC(=O)C1CSCN1S(=O)(=O)c1ccccc1F` (configuration not stated): the cytotoxicity at 70.5 h was -4.62%.

As to `CN(c1ccc2ccccc2c1)S(=O)(=O)c1cc(C(=O)O)cs1`, the cytotoxicity at 70.5 h was -8.18%.

Regarding `O=C(NC1CCN(C2CC2)CC1)NC1CCOc2ccc(Br)cc21` (configuration not stated), the cytotoxicity at 70.5 h turned out to be 5.74%.

In the case of `Cc1cccc(N(C)S(=O)(=O)c2cc(C(=O)O)cs2)c1C`, the cytotoxicity at 70.5 h was -5.76%.

Turning to `Cc1noc(Cl)c1CC(=O)NCC(C)(O)c1ccc(F)cc1F` (configuration not stated), the cytotoxicity at 70.5 h is 10.7%.

For the molecule `CSCCc1ccc(NC(=O)NC(C)Cn2cncn2)cc1` (configuration not stated), the cytotoxicity at 70.5 h is -2.38%.

For `COC(=O)NCC(=O)NCC(C)(C)c1cccc(C(F)(F)F)c1`, the cytotoxicity at 70.5 h was -1.23%.

For the molecule `CC1CN(C2CCN(Cc3nccn3CC(F)(F)F)CC2)CCO1` (configuration not stated), the cytotoxicity at 70.5 h is -9.54%.

As for `CC(C)C(C#N)N1CCN(Cc2nccn2CC(F)(F)F)CC1` (configuration not stated), the cytotoxicity at 70.5 h was -10.7%.

`CCN(Cc1ccccc1)C1CCN(c2cc(C)nn2C)C1=O` (configuration not stated): the cytotoxicity at 70.5 h was -8.27%.

Take `Cn1cc(C(=O)Nc2ccnc(Oc3ccccc3)c2)ccc1=O`: the cytotoxicity at 70.5 h is -5.49%.

In the case of `CN(C(=O)COC1CCCCC1)C1CCN(CC2CCOC2)CC1` (configuration not stated), the cytotoxicity at 70.5 h is -1.92%.

With `O=C(C[S+]([O-])Cc1c(F)cccc1Cl)N1CCc2sccc2C1` (configuration not stated), the cytotoxicity at 70.5 h was -6.1%.

As for `O=C(C[S+]([O-])Cc1ccc(F)cc1Cl)N1CCc2sccc2C1` (configuration not stated), the cytotoxicity at 70.5 h is -6.4%.

Take `COC(=O)c1sc(NCc2ccc(N3CCC(O)CC3)c(F)c2)nc1Cl`: the cytotoxicity at 70.5 h is -4.16%.

As to `Cc1c(C(=O)NC2(C#N)CCCC2)nnn1-c1ccccc1Cl`, the cytotoxicity at 70.5 h was -9.11%.

As for `Cc1c(C(=O)NC2(C#N)CCSC2)cnn1-c1ccccc1Cl` (configuration not stated), the cytotoxicity at 70.5 h worked out at 1.06%.

For `CN(CC(=O)N(C)C1CCN(CC2CCOC2)CC1)c1ccccc1` (configuration not stated), the cytotoxicity at 70.5 h is -4.84%.

For `CCn1cc(NC(=O)c2cccc(OCC(F)(F)F)n2)cn1`, the cytotoxicity at 70.5 h was -7.52%.

Take `O=c1c2cccnc2cnn1CC(O)c1cccc(C(F)(F)F)c1` (configuration not stated): the cytotoxicity at 70.5 h came out at 11.1%.

Regarding `CN1CCN(S(=O)(=O)c2cccc(C#N)c2)c2ccc(F)cc21`, the cytotoxicity at 70.5 h is 0.333%.

Regarding `Cc1cc(C(=O)NC2CC(=O)N(C(C)C)C2=O)c(C)n1C(C)C` (configuration not stated), the cytotoxicity at 70.5 h is -7.47%.

Regarding `O=C(NCCOc1ccc(C(F)(F)F)cn1)c1ccoc1`, the cytotoxicity at 70.5 h was -6.01%.

For `Cc1nc(C)c(C(=O)NCCOc2ccc(C(F)(F)F)cn2)o1`, the cytotoxicity at 70.5 h was -3.32%.

For `Cc1occc1C(=O)NCCOc1ccc(C(F)(F)F)cn1`, the cytotoxicity at 70.5 h is 18.8%.

With `CC(NCc1cnc(C2CCC2)s1)c1ccccc1-n1cccn1` (configuration not stated), the cytotoxicity at 70.5 h is -3.26%.

For the molecule `CCc1nnc2ccc(NCC3(O)CCOCC3)nn12`, the cytotoxicity at 70.5 h was -7.18%.

On to `CC(NCc1cnc(C2CCC2)s1)c1ccc(-n2cccn2)cc1` (configuration not stated), for which the cytotoxicity at 70.5 h is -8.33%.

As to `CN(C(=O)COC1CCCC1)C1CCN(CC2CCOC2)CC1` (configuration not stated), the cytotoxicity at 70.5 h is -11.5%.

For `CNC(=O)CCCNCc1c(C)nn(CC(C)C)c1N(C)C`, the cytotoxicity at 70.5 h worked out at 0.675%.

Regarding `CC(C)=CCS(=O)(=O)Cc1noc(CC(C)C)n1`, the cytotoxicity at 70.5 h is -1.31%.

In the case of `CN(CC(=O)Nc1cccc(F)c1)Cc1nc(N)nc(N(C)C)n1`, the cytotoxicity at 70.5 h came out at 1.01%.

Regarding `O=S(=O)(N1CCOCC1)N1CCc2sccc2C1`, the cytotoxicity at 70.5 h was found to be 6.06%.

As for `CN(C)c1nc(N)nc(CSCCC(=O)Nc2cccc(Cl)c2)n1`, the cytotoxicity at 70.5 h was found to be 19.2%.

With `CC(C)c1noc(CS(=O)(=O)Cc2nc(C(C)C)no2)n1`, the cytotoxicity at 70.5 h is -7.1%.

Consider `O=S(=O)(c1ccccc1)N1CCN(Cc2ccc(F)cc2Br)CC1`, for which the cytotoxicity at 70.5 h is -8.77%.

In the case of `O=C(c1cc(Cl)c2c(c1)OCCCO2)N(CC1CCOC1)C1CC1` (configuration not stated), the cytotoxicity at 70.5 h was -7.67%.

`CC(C)S(=O)(=O)CC(=O)N(Cc1ccsc1)c1ccccc1`: the cytotoxicity at 70.5 h was -7.19%.

For `Cn1cc(NC(=O)Cc2cccs2)c(=O)n(C)c1=O`, the cytotoxicity at 70.5 h was -9.77%.

For `N#Cc1nccnc1N1CCC(CSc2ccccc2)C1` (configuration not stated), the cytotoxicity at 70.5 h was -9.74%.

Take `O=S(=O)(N1CCCC1)N1CCc2sccc2C1`: the cytotoxicity at 70.5 h worked out at 0.675%.

On to `CCc1nc(C)ncc1C(=O)N1CCN(CC)c2ccccc21`, for which the cytotoxicity at 70.5 h is 8.71%.
